From the NIST ThermoML archive (doi:10.1016/j.fluid.2006.12.011)

Tests used:
[1] = Liquid, Vibrating tube method
[2] = xn = mol fraction of the nth substance listed; details: Liquid, Vibrating tube method, x2 = 0

C1CC[C@H]2CCCC[C@H]2C1 [cis-decahydronaphthalene]
mass density [kg/m3], [1]
Details | 303.15 K | 323.15 K | 343.15 K
100 kPa | 888.5 | 873.2 | 857.8
5000 kPa | 891.4 | 876.5 | 861.5
10000 kPa | 894.4 | 879.8 | 865.1
15000 kPa | 897.3 | 883 | 868.6
20000 kPa | 899.9 | 886 | 871.9
25000 kPa | 902.8 | 889 | 875.1
30000 kPa | 905.5 | 891.8 | 878.3
35000 kPa | 908 | 894.6 | 881.2
40000 kPa | 910.6 | 897.3 | 884.1
45000 kPa | 913 | 899.9 | 887
50000 kPa | 915.3 | 902.4 | 889.7
55000 kPa | 917.6 | 904.8 | 892.3
60000 kPa | 919.9 | 907.3 | 894.9
65000 kPa | 922.1 | 909.6 | 897.4

C1CC[C@H]2CCCC[C@@H]2C1 [trans-decahydronaphthalene]
mass density [kg/m3], [1]
Details | 303.15 K | 323.15 K | 343.15 K
100 kPa | 862.1 | 847.1 | 832
5000 kPa | 865.4 | 850.9 | 836.2
10000 kPa | 868.7 | 854.4 | 840.1
15000 kPa | 871.6 | 857.8 | 843.9
20000 kPa | 874.6 | 861 | 847.4
25000 kPa | 877.6 | 864.1 | 850.8
30000 kPa | 880.3 | 867.1 | 854.1
35000 kPa | 882.9 | 870 | 857.2
40000 kPa | 885.6 | 872.8 | 860.3
45000 kPa | 888.2 | 875.6 | 863.2
50000 kPa | 890.6 | 878.3 | 866.1
55000 kPa | 893 | 880.8 | 868.8
60000 kPa | 895.3 | 883.4 | 871.5
65000 kPa | 897.6 | 885.8 | 874.2

C1CC[C@H]2CCCC[C@@H]2C1 [trans-decahydronaphthalene] + C1CC[C@H]2CCCC[C@H]2C1
mass density [kg/m3], [2]
Details | 303.15 K | 323.15 K | 343.15 K
100 kPa | 862.1 | 847.1 | 832
5000 kPa | 865.4 | 850.9 | 836.2
10000 kPa | 868.7 | 854.4 | 840.1
15000 kPa | 871.6 | 857.8 | 843.9
20000 kPa | 874.6 | 861 | 847.4
25000 kPa | 877.6 | 864.1 | 850.8
30000 kPa | 880.3 | 867.1 | 854.1
35000 kPa | 882.9 | 870 | 857.2
40000 kPa | 885.6 | 872.8 | 860.3
45000 kPa | 888.2 | 875.6 | 863.2
50000 kPa | 890.6 | 878.3 | 866.1
55000 kPa | 893 | 880.8 | 868.8
60000 kPa | 895.3 | 883.4 | 871.5
65000 kPa | 897.6 | 885.8 | 874.2
